BindingDB's records for doi:10.1016/j.ejmech.2019.05.014 (Xuzhou Medical University, 2019)

What was measured:
[1] = Inhibition of capsid protein in lamivudine/entecavir-resistant Hepatitis B virus harboring rtL180M/rtM204V/rt184L mutant infected in human HepG2.2.15 cells assessed as reduction in viral DNA level measured after 72 hrs by PCR analysis
[2] = Inhibition of capsid protein in Hepatitis B virus infected in human HepG2.2.15 cells assessed as reduction in viral DNA level at 4 uM supplemented with fresh medium containing compound every 2 days and measured after 6 days by RT-PCR analysis

Row | SMILES | IC50 [1] | IC50 [2]
1 | CCN(CC)CCOc1ccc2nc(SCc3ccccc3)n(Cc3cccs3)c(=O)c2c1 | 0.84 µM | 0.71 µM
2 | CN(C)CCOc1ccc2nc(SCc3ccccc3)n(Cc3cccs3)c(=O)c2c1 | 1.9 µM | 1.54 µM
3 | COc1ccccc1CSc1nc2ccccc2c(=O)n1Cc1cccs1 |  | 2.81 µM
4 | COc1ccccc1CSc1nc2ccc(F)cc2c(=O)n1Cc1cccs1 |  | 2.48 µM
5 | COc1ccc(C(C)=O)cc1CSc1nc2ccccc2c(=O)n1Cc1cccs1 |  | 4.07 µM
6 | CCN(CC)CCOc1ccc2nc(SCc3ccccc3OC)n(Cc3cccs3)c(=O)c2c1 |  | 1.93 µM
7 | Nc1ccn([C@@H]2CS[C@H](CO)O2)c(=O)n1 [Epivir] | > 100 µM | < 0.1 µM
